The values below come from PubChem BioAssay AID1963832 (Molecular Pharmacology Branch, DTP, NCI, 2024).

SMILES strings stand for the structures. Where “and” joins values, the source holds several entries; their conditions need not be identical. Equal values may be shown once. A value given as a limit tells only on which side of the number the result lay.

This assay concerns 885724-159-R-J1-PDC complex spheroid viability. Put plainly: Anticancer human tumor 885724-159-R-J1-PDC patient-derived pancreatic adenocarcinoma cell line growth inhibition [POLQ]. The following applies: for viability, T/C: stronger effect = lower value. In outline:
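PDC + HUVEC + MSC complex spheroids; POLQ inhibitors ± partner drugs; top conc. at/near clinical Cmax, else 10 microM (SN-38 1 microM), half-log dilutions; 37 degrees C, 5% CO2.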
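Note: spheroids exposed to compounds for 7 days.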

By IC50 is commonly meant the midpoint of a concentration-inhibition curve. The viability, T/C is the result in the treated group divided by that in the control group, in per cent. As to `Nc1ccn(C2OC(CO)C(O)C2(F)F)c(=O)n1` (stereo unspecified) + Nc1ccc(C#CCN(C(=O)Cc2ncc(C(F)(F)F)cc2C(F)(F)F)c2ccc(F)cc2)nn1, the IC50 by setting is: (curve of first compound, second compound 0.0316 µM) 1040 nM; (curve of first compound, second compound 0.1 µM) 1880 nM; (curve of first compound, second compound 0.316 µM) 2270 nM; (curve of first compound, second compound 1 µM) 886 nM; (curve of first compound, second compound 3.16 µM) more than 10000 nM; (curve of first compound, second compound 10 µM) more than 10000 nM. In addition, the viability, T/C (second compound 0.0316 µM, first compound 0.0316 µM) was 65.5%; the viability, T/C (second compound 0.0316 µM, first compound 0.1 µM) is 57.2%; the viability, T/C (second compound 0.0316 µM, first compound 0.316 µM) was 47%; the viability, T/C (second compound 0.0316 µM, first compound 1 µM) was 55.1%; the viability, T/C (second compound 0.0316 µM, first compound 3.16 µM) is 54.8%; the viability, T/C (second compound 0.0316 µM, first compound 10 µM) is 42.1%. For the same compound, the viability, T/C runs as follows: (second compound 0.1 µM, first compound 0.0316 µM) 70.2%; (second compound 0.1 µM, first compound 0.1 µM) 60.2%; (second compound 0.1 µM, first compound 0.316 µM) 54.3%; (second compound 0.1 µM, first compound 1 µM) 55.2%; (second compound 0.1 µM, first compound 3.16 µM) 49.6%; (second compound 0.1 µM, first compound 10 µM) 44.2%. For the same compound, the viability, T/C (second compound 0.316 µM, first compound 0.0316 µM) was 72%; the viability, T/C (second compound 0.316 µM, first compound 0.1 µM) is 62.9%; the viability, T/C (second compound 0.316 µM, first compound 0.316 µM) was 56.5%; the viability, T/C (second compound 0.316 µM, first compound 1 µM) was 53.2%; the viability, T/C (second compound 0.316 µM, first compound 3.16 µM) is 49.1%; the viability, T/C (second compound 0.316 µM, first compound 10 µM) was 46.3%. The viability, T/C reads like this: (second compound 1 µM, first compound 0.0316 µM) 72.4%; (second compound 1 µM, first compound 0.1 µM) 55.4%; (second compound 1 µM, first compound 0.316 µM) 54.2%; (second compound 1 µM, first compound 1 µM) 51.2%; (second compound 1 µM, first compound 3.16 µM) 49%; (second compound 1 µM, first compound 10 µM) 47.1%. The viability, T/C is 77.5% (second compound 3.16 µM, first compound 0.0316 µM); 60.9% (second compound 3.16 µM, first compound 0.1 µM); 55.7% (second compound 3.16 µM, first compound 0.316 µM); 50.8% (second compound 3.16 µM, first compound 1 µM); 55.8% (second compound 3.16 µM, first compound 3.16 µM); 46.4% (second compound 3.16 µM, first compound 10 µM). Besides, the viability, T/C is, setting by setting: (second compound 10 µM, first compound 0.0316 µM) 96%; (second compound 10 µM, first compound 0.1 µM) 72%; (second compound 10 µM, first compound 0.316 µM) 69.3%; (second compound 10 µM, first compound 1 µM) 59.2%; (second compound 10 µM, first compound 3.16 µM) 54.9%; (second compound 10 µM, first compound 10 µM) 55.2%.

Turning to `CCc1c2c(nc3ccc(O)cc13)-c1cc3c(c(=O)n1C2)COC(=O)[C@]3(O)CC`, the viability, T/C is, setting by setting: (compound 0.00316 µM) 76.2% and 80.4% and 69%; (compound 0.01 µM) 56% and 61.6% and 54.3%; (compound 0.0316 µM) 53.4% and 55% and 47.8%; (compound 0.1 µM) 47.3% and 54.5% and 50.5%; (compound 0.316 µM) 32% and 33.2% and 35.3%; (compound 1 µM) 5.28% and 5.56% and 4.88%. Also, the half-maximal inhibitory concentration (IC50) (curve of compound) is 55.4 nM and 88.2 nM and 65.5 nM.

As for `CCc1cc2c(N3CCc4c(cc(Cn5ccnc5)cc4-c4cn(C)nc4C(F)(F)F)C3=O)ccnc2c(OC)n1`, the viability, T/C (compound 0.0316 µM) was 93.9% and 86.6% and 89.7%; the viability, T/C (compound 0.1 µM) was 80.4% and 79.6% and 85%; the viability, T/C (compound 0.316 µM) was 87.7% and 80.6% and 84.8%; the viability, T/C (compound 1 µM) is 72.1% and 82.8% and 82.3%; the viability, T/C (compound 3.16 µM) is 76.9% and 72.9% and 80%; the viability, T/C (compound 10 µM) is 64.6% and 72.9% and 65%. For the same compound, the half-maximal inhibitory concentration (IC50) (curve of compound) is more than 10000 nM.
